Reference: patent US6417174B1, “Inhibitors of β-lactamases and uses therefor” (Northwestern University, priority 1997, dated 2002)

Columns and labels:
[1] = target: AmpC β-lactamase from E. coli (Escherichia coli, UniProt P00811); test: biochemical; format: biochemical; conditions: Ki E. coli AmpC
[2] = target: Enterobacter cloacae P99 β-lactamase (Enterobacter cloacae, UniProt P05364); conditions: Dryjanski and Pratt, Biochemistry 34, 3561-3568 (1995); cited from earlier work
[3] = target: T1, TEM-1 β-lactamase from E. coli (Escherichia coli, UniProt P62593); test: Inhibition of TEM-1 β-lactamase, spectrophotometric assay (FAP substrate); format: biochemical
T1 construct: gift: Natalie Strynadka, University of Alberta

[4] = tested on: β-lactamase derepressed strain of Enterobacter cloacae (Ent-Der); test: microbe, parasite or virus in culture; format: cell-based; conditions: Enterobacter cloacae; Table 3A; Ent. Der.; CAZ alone; read-out: MIC of ceftazidime (CAZ)
Description: (§1) After incubation, the growth of the cells was visually inspected. The minimum inhibitory concentration (MIC) is the lowest concentration where there no cell growth was observed.
(§2) The following strains were used: Enterobacter cloacae cell line with derepressed β-lactamase production (Ent-Der), and Escherichia coli RYC1000 (araD139 D lacU169 rpsL D rib7 thiA gyrA recA56) cell lines, harboring the plasmid pBGS19 (with no β-lactamase), or the β-lactamase containing plasmids pBGAmpC (AmpC β-lactamase from E. coli; Eco-AmpC), or pBGAmpC-MHN (AmpC β-lactamase from Enterobacter cloacae; Eco-AmpCEnt). […] TEM-10 and TEM-24 differ from TEM-1 due to the following point substitutions: TEM-10 (R164S, E240K); TEM-24 (L102K, L162S, S235T, A237K). TEM-10 and TEM-24 also differ from TEM-1 in being extended spectrum enzymes (i.e., they react with a greater range of substrates than TEM-1). Also tested were clinical isolates of Pseudomonas aeruginosa. All bacterial strains and plasmids are available from Jesus Blazquez and Fernando Baquero, Servicio de Microbiologia, Hospital Ramon y Cajal, National Institute of Health, Madrid, Spain.
(§3) Several ratios, including 1:1, 2:1, 4:1, and 1:3, of β-lactam antibiotic (amoxicillin (AX) or ceftazidime (CAZ)) to boronic acid compound were used in the assays. Tazobactam (TAZO), a clinically used β-lactamase inibitor, was used as a positive control.

[5] = tested on: Ps. aeruginosa-2 (clinical isolate); test: Antibacterial activity, wider range of bacteria; format: cell-based, Pseudomonas aeruginosa; conditions: Table 6
Description: (§4) Bacterial cell culture testing was performed and interpreted following the guidelines of the National Committee for Clinical Laboratory Standards (National Committee for Clinical Laboratory Standards. Methods for Dilution Antimicrobial Susceptibility Tests for Bacteria that Grow Aerobically. Approved Standard M7-A3. National Committee for Clinical Laboratory Standards, Villanova, Pa. 1993). After incubation, the growth of the cells was visually inspected. The minimum inhibitory concentration (MIC) is the lowest concentration where there no cell growth was observed.
(§5) All bacterial strains and plasmids are available from Jesus Blazquez and Fernando Baquero, Servicio de Microbiologia, Hospital Ramon y Cajal National Institute of Health, Madrid, Spain.

[6] = tested on: Ps. aeruginosa-3 (clinical isolate); test: Antibacterial activity, wider range of bacteria; format: cell-based, Pseudomonas aeruginosa; conditions: Table 6
Description: as §4, §5

[7] = tested on: E. coli derrepr. (clinical isolate); test: Antibacterial activity, wider range of bacteria; format: cell-based; conditions: Table 6
Description: as §4, §5

MC4100/AmpC-E. coli = test: Antibacterial activity, wider range of bacteria; format: cell-based; conditions: Table 6
Description: as §4, §5

[8] = tested on: Pseudomonas aeruginosa-1 (clinical isolate); test: Antibacterial activity, wider range of bacteria; format: cell-based; conditions: Table 6
Description: as §4, §5

[9] = tested on: Citrobacter freundii derrepressed (clinical isolate); test: Antibacterial activity, wider range of bacteria; format: cell-based; conditions: Table 6
Description: as §4, §5

[10] = tested on: MC4100/AmpC-E. coli (OmpR-); test: Antibacterial activity, wider range of bacteria; format: cell-based; conditions: Table 6
Description: as §4, §5

[11] = tested on: MC4100/AmpC-E. coli (OmpF-); test: Antibacterial activity, wider range of bacteria; format: cell-based; conditions: Table 6
Description: as §4, §5

[12] = tested on: MC4100/AmpC-E. coli (OmpC-); test: Antibacterial activity, wider range of bacteria; format: cell-based; conditions: Table 6
Description: as §4, §5

[13] = tested on: Enterobacter cloacae derrepressed (clinical isolate); test: Antibacterial activity, wider range of bacteria; format: cell-based; conditions: Table 6
Description: as §4, §5

[14] = tested on: E. coli RYC1000 harboring plasmid pBGTEM-24 (TEM-24 β-lactamase); test: microbe, parasite or virus in culture; format: cell-based, Escherichia coli; conditions: Escherichia coli, Table 3A, CAZ alone, read-out: MIC of ceftazidime (CAZ)
Description: as §1, §2, §3

[15] = tested on: E. coli RYC1000 harboring plasmid pBGAmpC-MHN (AmpC β-lactamase of Enterobacter cloacae); test: microbe, parasite or virus in culture; format: cell-based, Escherichia coli; conditions: Enterobacter cloacae; Table 3A; AmpC-MHN; CAZ alone; read-out: MIC of ceftazidime (CAZ)
Description: as §1, §2, §3

[16] = tested on: E. coli RYC1000 harboring plasmid pBGS19 (no β-lactamase); test: microbe, parasite or virus in culture; format: cell-based, Escherichia coli; conditions: Escherichia coli; Table 3A; pBGS19; CAZ alone; read-out: MIC of ceftazidime (CAZ)
Description: as §1, §2, §3

MC4 100/AmpC-Enter = test: Antibacterial activity, wider range of bacteria; format: cell-based, E. coli; conditions: Table 6
Description: as §4, §5

[17] = tested on: MC4100/AmpC-Enter (OmpR-); test: Antibacterial activity, wider range of bacteria; format: cell-based, E. coli; conditions: Table 6
Description: as §4, §5

[18] = tested on: MC4100/AmpC-Enter (OmpC-); test: Antibacterial activity, wider range of bacteria; format: cell-based, E. coli; conditions: Table 6
Description: as §4, §5

[19] = tested on: MC4100/AmpC-Enter (OmpF-); test: Antibacterial activity, wider range of bacteria; format: cell-based, E. coli; conditions: Table 6
Description: as §4, §5

T1 sequence (P62593 24-286 limits assumed): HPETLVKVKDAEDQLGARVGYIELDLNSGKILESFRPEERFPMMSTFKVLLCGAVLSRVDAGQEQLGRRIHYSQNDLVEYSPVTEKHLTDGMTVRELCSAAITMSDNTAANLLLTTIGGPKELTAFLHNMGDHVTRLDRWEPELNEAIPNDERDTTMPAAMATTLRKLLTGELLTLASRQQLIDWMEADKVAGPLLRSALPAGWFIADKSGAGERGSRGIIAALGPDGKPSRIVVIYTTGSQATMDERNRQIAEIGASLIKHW
Chain of AmpC β-lactamase from E. coli (P00811 20-377): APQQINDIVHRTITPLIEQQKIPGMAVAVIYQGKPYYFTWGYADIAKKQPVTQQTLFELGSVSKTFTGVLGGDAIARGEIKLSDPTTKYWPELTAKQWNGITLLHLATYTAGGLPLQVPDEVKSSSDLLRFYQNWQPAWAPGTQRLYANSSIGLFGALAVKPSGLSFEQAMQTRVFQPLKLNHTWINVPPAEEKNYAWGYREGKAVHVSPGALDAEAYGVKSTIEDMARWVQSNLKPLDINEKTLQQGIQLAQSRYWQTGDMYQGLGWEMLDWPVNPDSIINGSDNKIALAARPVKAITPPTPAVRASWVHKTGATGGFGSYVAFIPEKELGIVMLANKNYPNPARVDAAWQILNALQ
Chain of Enterobacter cloacae P99 β-lactamase (P05364 21-381): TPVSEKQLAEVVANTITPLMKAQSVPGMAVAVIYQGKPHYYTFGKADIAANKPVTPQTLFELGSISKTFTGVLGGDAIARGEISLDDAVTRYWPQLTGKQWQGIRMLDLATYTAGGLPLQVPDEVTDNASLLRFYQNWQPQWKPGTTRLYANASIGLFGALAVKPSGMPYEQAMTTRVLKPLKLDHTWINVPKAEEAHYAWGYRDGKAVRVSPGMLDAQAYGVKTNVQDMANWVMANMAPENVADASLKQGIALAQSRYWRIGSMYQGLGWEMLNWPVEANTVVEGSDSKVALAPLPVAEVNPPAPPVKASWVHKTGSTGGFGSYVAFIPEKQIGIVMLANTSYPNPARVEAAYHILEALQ

CN(C)c1cccc2c(S(=O)(=O)Nc3cccc(B(O)O)c3)cccc12 [NSULFB, m-(dansylamidophenyl)-boronic acid, reference compound]
Ki [1]: 1.6 µM | inhibitor of Enterobacter cloacae P99 β-lactamase (in words) [2]: submicromolar | Ki [3]: 88 µM

CC(C)(O/N=C(\C(=O)N[C@@H]1C(=O)N2C(C(=O)[O-])=C(C[n+]3ccccc3)CS[C@H]12)c1csc(N)n1)C(=O)O [CAZ, ceftazidime, reference compound]
MIC [4]: 512 µg/mL | MIC, agent alone (CAZ alone / BZB only) [5]: 32 | MIC, agent alone (CAZ alone / BZB only) [6]: 64 | MIC, agent alone (CAZ alone / BZB only) [7]: 16 | MIC, agent alone (CAZ alone / BZB only) (MC4100/AmpC-E. coli): 8 | MIC, agent alone (CAZ alone / BZB only) [8]: 8 | MIC, agent alone (CAZ alone / BZB only) [9]: 16 | MIC, agent alone (CAZ alone / BZB only) [10]: 8 | MIC, agent alone (CAZ alone / BZB only) [11]: 32 | MIC, agent alone (CAZ alone / BZB only) [12]: 16 | MIC, agent alone (CAZ alone / BZB only) [13]: 16 | MIC [14]: 256 µg/mL | MIC [15]: 32 µg/mL | MIC [16]: < 0.5 µg/mL | MIC, agent alone (CAZ alone / BZB only) (MC4 100/AmpC-Enter): 32 | MIC, agent alone (CAZ alone / BZB only) [17]: 32 | MIC, agent alone (CAZ alone / BZB only) [18]: 16 | MIC, agent alone (CAZ alone / BZB only) [19]: 32
